Results on one compound are retold here after patent publication US9107844B2, “Topical skin treating compositions” (STIEFEL LABORATORIES INC., priority 2006, dated 2015).

What all share (format): physicochemical
Data set [1] in a line: Stability of active ingredients, Example 9 composition (benzoyl peroxide/tazarotene). Conditions: composition 5.18% BPO, 0.099% tazarotene, Initial 5.18%. The text has this:
Tables 9 and 10 show the stability of the active ingredients in a composition containing 5.18% of benzoyl peroxide and 0.099% of tazarotene.
A 2-week and 6-month analysis of the composition was undertaken following the procedure of Example 2.

The nature of data set [2]: Stability of combined active ingredients, Example 6 composition (benzoyl peroxide/tazarotene/clindamycin). Conditions: 0.096% tazarotene, […] clindamycin, Initial […], 2 weeks. The protocol:
Measurements were taken at the end of 2 weeks. The composition was stored at 2 different temperatures, i.e., 25° C. and 30° C. […]

Data set [3] can be described thus: Stability of active ingredients, Example 10 composition (benzoyl peroxide/clindamycin). The settings on record: composition 4.84% BPO, 1.08% clindamycin, Initial 4.84%. The text has this: A 2-week analysis and 6-month analysis of the composition was undertaken following the procedure of Example 2.

In the case of `O=C(OOC(=O)c1ccccc1)c1ccccc1` [Benzoyl Peroxide], the “Benzoyl Peroxide (BPO) (as % w/w)” value in data set [1] (6° C., 6 months) is reported as 5.2 % w/w; in data set [1] (25° C., 2 weeks) it was 5.21 % w/w; in data set [1] (25° C., 6 months) it was 5.14 % w/w; in data set [2] (25° C.), 1.06 % w/w; in data set [2] (30° C.) it was 1.06 % w/w; in data set [3] (6° C., 2 weeks) it was 5.53 % w/w. Besides, the “Benzoyl Peroxide (BPO) (as % w/w)” value in data set [3] (6° C., 6 months) turned out to be 4.81 % w/w; in data set [3] (25° C., 2 weeks) it was 5.01 % w/w; in data set [3] (25° C., 6 months), 4.85 % w/w.
